#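 Dose response: 5 concentrations. Exposure: 48 h. Format: 96-well plates. Endpoint: linear interpolation; highest concentration if not reached. Definition used: TGI = concentration required for complete inhibition of growth.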
# Tests used:
# Assay in all cases: DTP human tumour cell line panel, 48 h
# [1] = system: 786-0 renal
# [2] = system: A549 NSCLC
# [3] = system: ACHN renal
# [4] = system: BT-549 breast
# [5] = system: CAKI-1 renal
# [6] = system: CCRF-CEM leukemia
# [7] = system: COLO 205 colon
# [8] = system: DU-145 prostate
# [9] = system: EKVX NSCLC
# [10] = system: HCC-2998 colon
# [11] = system: HCT-116 colon
# [12] = system: HCT-15 colon
# [13] = system: HL-60(TB) leukemia
# [14] = system: HOP-62 NSCLC
# [15] = system: HOP-92 NSCLC
# [16] = system: HS 578T breast
# [17] = system: HT29 colon
# [18] = system: IGROV1 ovarian
# [19] = system: K-562 leukemia
# [20] = system: KM12 colon
# [21] = system: LOX IMVI melanoma
# [22] = system: M14 melanoma
# [23] = system: MALME-3M melanoma
# [24] = system: MCF7 breast
# [25] = system: MDA-MB-231 breast
# [26] = system: MDA-MB-435
# [27] = system: MDA-N
# [28] = system: MOLT-4 leukemia
# [29] = system: NCI-H226 lung
# [30] = system: NCI-H23 lung
# [31] = system: NCI-H460 lung
# [32] = system: NCI-H522 lung
# [33] = system: NCI/ADR-RES ovarian
# [34] = system: OVCAR-4 ovarian
# [35] = system: OVCAR-8 ovarian
# [36] = system: PC-3 prostate
# [37] = system: RPMI-8226 leukemia
# [38] = system: RXF 393 renal
# [39] = system: SF-268 CNS
# [40] = system: SF-295 CNS
# [41] = system: SF-539 CNS
# [42] = system: SK-MEL-28 melanoma
# [43] = system: SK-MEL-5 melanoma
# [44] = system: SK-OV-3 ovarian
# [45] = system: SN12C renal
# [46] = system: SNB-19 CNS
# [47] = system: SNB-75 CNS
# [48] = system: SR leukemia
# [49] = system: SW-620 colon
# [50] = system: T-47D breast
# [51] = system: TK-10 renal
# [52] = system: UACC-257 melanoma
# [53] = system: UACC-62 melanoma
# [54] = system: UO-31 renal
# [55] = system: A498 renal
# [56] = system: OVCAR-3 ovarian
# [57] = system: OVCAR-5 ovarian
# [58] = system: SK-MEL-2 melanoma
# [59] = system: U251 CNS
smiles,measurement,setting,value
O=C1NC(S(=O)(=O)O)=NNC12c1ccccc1-c1ccccc12,TGI,[1],> 10 µM
same,TGI,[2],> 10 µM
same,TGI,[3],> 10 µM
same,TGI,[4],> 10 µM
same,TGI,[5],> 10 µM
same,TGI,[6],> 10 µM
same,TGI,[7],> 10 µM
same,TGI,[8],> 10 µM
same,TGI,[9],> 10 µM
same,TGI,[10],> 10 µM
same,TGI,[11],> 10 µM
same,TGI,[12],> 10 µM
same,TGI,[13],> 10 µM
same,TGI,[14],> 10 µM
same,TGI,[15],> 10 µM
same,TGI,[16],> 10 µM
same,TGI,[17],> 10 µM
same,TGI,[18],> 10 µM
same,TGI,[19],> 10 µM
same,TGI,[20],> 10 µM
same,TGI,[21],> 10 µM
same,TGI,[22],> 10 µM
same,TGI,[23],> 10 µM
same,TGI,[24],> 10 µM
same,TGI,[25],> 10 µM
same,TGI,[26],> 10 µM
same,TGI,[27],> 10 µM
same,TGI,[28],> 10 µM
same,TGI,[29],> 10 µM
same,TGI,[30],> 10 µM
same,TGI,[31],> 10 µM
same,TGI,[32],> 10 µM
same,TGI,[33],> 10 µM
same,TGI,[34],> 10 µM
same,TGI,[35],> 10 µM
same,TGI,[36],> 10 µM
same,TGI,[37],> 10 µM
same,TGI,[38],> 10 µM
same,TGI,[39],> 10 µM
same,TGI,[40],> 10 µM
same,TGI,[41],> 10 µM
same,TGI,[42],> 10 µM
same,TGI,[43],> 10 µM
same,TGI,[44],> 10 µM
same,TGI,[45],> 10 µM
same,TGI,[46],> 10 µM
same,TGI,[47],> 10 µM
same,TGI,[48],> 10 µM
same,TGI,[49],> 10 µM
same,TGI,[50],> 10 µM
same,TGI,[51],> 10 µM
same,TGI,[52],> 10 µM
same,TGI,[53],> 10 µM
same,TGI,[54],> 10 µM
CN(C)C(=O)C1CCN(Cc2c[nH]c3ccccc23)CC1,TGI,[1],> 100 µM
same,TGI,[55],> 100 µM
same,TGI,[2],> 100 µM
same,TGI,[3],> 100 µM
same,TGI,[4],> 100 µM
same,TGI,[5],> 100 µM
same,TGI,[7],> 100 µM
same,TGI,[8],> 100 µM
same,TGI,[9],> 100 µM
same,TGI,[11],> 100 µM
same,TGI,[12],> 100 µM
same,TGI,[13],> 100 µM
same,TGI,[14],> 100 µM
same,TGI,[15],> 100 µM
same,TGI,[16],> 100 µM
same,TGI,[17],> 100 µM
same,TGI,[18],> 100 µM
same,TGI,[19],> 100 µM
same,TGI,[20],> 100 µM
same,TGI,[21],> 100 µM
same,TGI,[22],> 100 µM
same,TGI,[23],> 100 µM
same,TGI,[24],> 100 µM
same,TGI,[25],> 100 µM
same,TGI,[26],> 100 µM
same,TGI,[27],> 100 µM
same,TGI,[28],> 100 µM
same,TGI,[29],> 100 µM
same,TGI,[30],> 100 µM
same,TGI,[32],> 100 µM
same,TGI,[33],> 100 µM
same,TGI,[56],> 100 µM
same,TGI,[34],> 100 µM
same,TGI,[57],> 100 µM
same,TGI,[35],> 100 µM
same,TGI,[36],> 100 µM
same,TGI,[37],> 100 µM
same,TGI,[38],> 100 µM
same,TGI,[39],> 100 µM
same,TGI,[40],> 100 µM
same,TGI,[58],> 100 µM
same,TGI,[42],> 100 µM
same,TGI,[43],> 100 µM
same,TGI,[44],> 100 µM
same,TGI,[45],> 100 µM
same,TGI,[46],> 100 µM
same,TGI,[47],> 100 µM
same,TGI,[48],> 100 µM
same,TGI,[49],30.7 µM
same,TGI,[50],> 100 µM
same,TGI,[51],> 100 µM
same,TGI,[59],> 100 µM
same,TGI,[52],> 100 µM
same,TGI,[53],> 100 µM
same,TGI,[54],> 100 µM

# From PubChem BioAssay (NCI)
